In ChEMBL document CHEMBL1151449, “In vitro activity of DC-159a, a new broad-spectrum fluoroquinolone, compared with that of other agents against drug-susceptible and -resistant pneumococci” (2008):
In brackets after ≈: the same amount, converted by molar mass.

Experiments:
Type in all cases: functional
[1] = tested on: Streptococcus pneumoniae; assay: Antibacterial activity against Streptococcus pneumoniae HMC 1066 harboring S81F mutation in quinolone-resistant determining regions of GyrA gene, S79F mutation in QRDR of ParC gene and I460V mutation in QRDR of ParE gene by agar dilution method
[2] = tested on: Streptococcus pneumoniae; assay: Antibacterial activity against Streptococcus pneumoniae HMC 1073 harboring S81F mutation in quinolone-resistant determining regions of GyrA gene, and I460V mutation in QRDR of ParE gene by agar dilution method
[3] = tested on: Streptococcus pneumoniae; assay: Antibacterial activity against Streptococcus pneumoniae HMC 1147 harboring S81F mutation in quinolone-resistant determining regions of GyrA gene, S79F mutation in QRDR of ParC gene and I460V mutation in QRDR of ParE gene showing efflux to gemifloxacin by agar dilution method
[4] = tested on: Streptococcus pneumoniae; assay: Antibacterial activity against Streptococcus pneumoniae HMC 1150 harboring S81C mutation in quinolone-resistant determining regions of GyrA gene, S79F mutation in QRDR of ParC gene and I460V mutation in QRDR of ParE gene by agar dilution method
[5] = tested on: Streptococcus pneumoniae; assay: Antibacterial activity against Streptococcus pneumoniae HMC 5041 harboring S81F and S79F mutation in quinolone-resistant determining regions of GyrA and ParC genes respectively by agar dilution method
[6] = tested on: Streptococcus pneumoniae; assay: Antibacterial activity against Streptococcus pneumoniae HMC 1055 harboring S81F mutation in quinolone-resistant determining regions of GyrA gene, S79F, K137N mutation in QRDR of ParC gene and I460V mutation in QRDR of ParE gene by agar dilution method
[7] = tested on: Streptococcus pneumoniae; assay: Antibacterial activity against Streptococcus pneumoniae HMC 1059 harboring S81F mutation in quinolone-resistant determining regions of GyrA gene, S79F, K137N mutation in QRDR of ParC gene and I460N mutation in QRDR of ParE gene by agar dilution method
[8] = tested on: Streptococcus pneumoniae; assay: Antibacterial activity against Streptococcus pneumoniae HMC 1074 harboring S81F mutation in quinolone-resistant determining regions of GyrA gene, S79F mutation in QRDR of ParC gene and I460V mutation in QRDR of ParE gene by agar dilution method
[9] = tested on: Streptococcus pneumoniae; assay: Antibacterial activity against penicillin-, quinolone-resistant and macrolide-susceptible Streptococcus pneumoniae HMC 1058 harboring S79F, K137N mutation in quinolone-resistant determining regions of ParC gene and 460V mutation in QRDR of ParE gene by broth microdilution method
[10] = tested on: Streptococcus pneumoniae; assay: Antibacterial activity against penicillin-resistant and quinolone-susceptible Streptococcus pneumoniae HMC 228 expressing ermB by broth microdilution method
[11] = tested on: Streptococcus pneumoniae; assay: Antibacterial activity against penicillin-, quinolone-resistant Streptococcus pneumoniae HMC 1541 harboring mutation in L4 protein by broth microdilution method
[12] = tested on: Streptococcus pneumoniae; assay: Antibacterial activity against quinolone-susceptible and penicillin-intermediate Streptococcus pneumoniae HMC 5048 expressing mefA after 50 passages by broth microdilution method
[13] = tested on: Streptococcus pneumoniae; assay: Antibacterial activity against Streptococcus pneumoniae HMC 3041 after 50 passages by broth microdilution method
[14] = tested on: Streptococcus pneumoniae; assay: (§1) Antibacterial activity against penicillin-susceptible, quinolone-resistant Streptococcus pneumoniae HMC 1072 expressing ermB and harboring S81F mutation in quinolone-resistant determining regions of GyrA gene, S79Y mutation in QRDR of ParC gene and I460V mutation in QRDR of ParE gene after 50 passages by broth microdilution method
[15] = tested on: Streptococcus pneumoniae; assay: as §1, with “penicillin-, macrolide-susceptible and” for “penicillin-susceptible,”, “1074” for “1072 expressing ermB and”, “S79F” for “S79Y”
[16] = tested on: Streptococcus pneumoniae; assay: (§2) Antibacterial activity against penicillin-resistant and quinolone-susceptible Streptococcus pneumoniae HMC 228 expressing ermB and harboring S81F mutation in quinolone-resistant determining regions of GyrA gene, S79Y mutation in QRDR of ParC gene and I460V mutation in QRDR of ParE gene after 36 passages with moxifloxacin measured after 10 daily antibiotic-free subculturing by multi-step resistance selection technique
[17] = tested on: Streptococcus pneumoniae; assay: Antibacterial activity against penicillin-resistant and quinolone-susceptible Streptococcus pneumoniae HMC 3583 expressing mefA and harboring I460V mutation in QRDR of ParE gene after 41 passages with gemifloxacin measured after 10 daily antibiotic-free subculturing by multi-step resistance selection technique
[18] = tested on: Streptococcus pneumoniae; assay: Antibacterial activity against penicillin-intermediate Streptococcus pneumoniae […] by agar dilution method
[19] = tested on: Streptococcus pneumoniae; assay: Antibacterial activity against azithromycin-susceptible Streptococcus pneumoniae ATCC 49619 by agar dilution method
[20] = tested on: Streptococcus pneumoniae; assay: Antibacterial activity against azithromycin-resistant Streptococcus pneumoniae […] by agar dilution method
[21] = tested on: Streptococcus pneumoniae; assay: Antibacterial activity against quinolone-resistant Streptococcus pneumoniae […] by agar dilution method
[22] = tested on: Streptococcus pneumoniae; assay: Antibacterial activity against Streptococcus pneumoniae HMC 1149 harboring S81F and S79Y mutation in quinolone-resistant determining regions of GyrA and ParC genes respectively showing efflux to ciprofloxacin, gemifloxacin by agar dilution method
[23] = tested on: Streptococcus pneumoniae; assay: Antibacterial activity against Streptococcus pneumoniae HMC 1151 harboring D83N, K137N mutation in quinolone-resistant determining regions of ParC gene and I460V mutation in QRDR of ParE gene showing efflux to ciprofloxacin, gemifloxacin by agar dilution method
[24] = tested on: Streptococcus pneumoniae; assay: Antibacterial activity against Streptococcus pneumoniae HMC 1156 harboring S81F and S79F mutation in quinolone-resistant determining regions of GyrA and ParC genes respectively showing efflux to ciprofloxacin, gemifloxacin by agar dilution method
[25] = tested on: Streptococcus pneumoniae; assay: Antibacterial activity against Streptococcus pneumoniae HMC 1541 harboring S81Y mutation in quinolone-resistant determining regions of GyrA gene, S79F, K137N mutation in QRDR of ParC gene and I460V mutation in QRDR of ParE gene by agar dilution method
[26] = tested on: Streptococcus pneumoniae; assay: Antibacterial activity against Streptococcus pneumoniae HMC 1062 harboring S81F mutation in quinolone-resistant determining regions of GyrA gene, S79F mutation in QRDR of ParC gene and I460V mutation in QRDR of ParE gene by agar dilution method
[27] = tested on: Streptococcus pneumoniae; assay: Antibacterial activity against Streptococcus pneumoniae HMC 1068 harboring E85K mutation in quinolone-resistant determining regions of GyrA gene, S79Y, K137N mutation in QRDR of ParC gene and I460V mutation in QRDR of ParE gene showing efflux to ciprofloxacin, levofloxacin by agar dilution method
[28] = tested on: Streptococcus pneumoniae; assay: Antibacterial activity against penicillin- and quinolone-susceptible Streptococcus pneumoniae HMC 5055 expressing mefA by broth microdilution method
[29] = tested on: Streptococcus pneumoniae; assay: Antibacterial activity against macrolide-, quinolone-susceptible and penicillin-intermediate Streptococcus pneumoniae HMC 99 by broth microdilution method
[30] = tested on: Streptococcus pneumoniae; assay: Antibacterial activity against quinolone-susceptible and penicillin-intermediate Streptococcus pneumoniae HMC 441 expressing ermB by broth microdilution method
[31] = tested on: Streptococcus pneumoniae; assay: Antibacterial activity against quinolone-susceptible and penicillin-intermediate Streptococcus pneumoniae HMC 5048 expressing mefA by broth microdilution method
[32] = tested on: Streptococcus pneumoniae; assay: as §2, with “3583” for “228”, “mefA” for “ermB”, “D83N” for “S79Y”, “44” for “36”, “levofloxacin” for “moxifloxacin”

SMILES | MIC [1] [µg/mL] | MIC [2] [µg/mL] | MIC [3] [µg/mL] | MIC [4] [µg/mL] | MIC [5] [µg/mL] | MIC [6] [µg/mL] | MIC [7] [µg/mL] | MIC [8] [µg/mL] | MIC [9] [µg/mL] | MIC [10] [µg/mL] | MIC [11] [µg/mL] | MIC [12] [µg/mL] | MIC [13] [µg/mL] | MIC [14] [µg/mL] | MIC [15] [µg/mL] | MIC [16] [µg/mL] | MIC [17] [µg/mL] | MIC50 [18] [µg/mL] | MIC90 [18] [µg/mL] | MIC50 [19] [µg/mL] | other results
COc1c(N2CC3(CC3)[C@](C)(N)C2)c(F)cc2c(=O)c(C(=O)O)cn([C@@H]3C[C@@H]3F)c12.O | 0.5 | 1 | 1 | 0.5 | 1 | 1 | 1 | 0.5 | 0.5 | 0.12 | 1 | 0.125 | 0.125 | 1 | 1 | 1 | 1 | 0.12 | 0.12 | 0.12 | MIC90 [19]: 0.5 µg/mL; MIC50 [20]: 0.12 µg/mL; MIC90 [20]: 0.12 µg/mL; MIC50 [21]: 1 µg/mL; MIC90 [21]: 1 µg/mL; MIC [22]: 0.25 µg/mL; MIC [23]: 0.25 µg/mL; MIC [24]: 1 µg/mL; MIC [25]: 0.5 µg/mL; MIC [26]: 1 µg/mL; MIC [27]: 1 µg/mL; MIC [28]: 0.12 µg/mL; MIC [29]: 0.12 µg/mL; MIC [30]: 0.12 µg/mL; MIC [31]: 0.12 µg/mL; MIC [32]: 1 µg/mL
COc1c(N2CCNC(C)C2)c(F)cc2c(=O)c(C(=O)O)cn(C3CC3)c12 (configuration not stated) [GATIFLOXACIN] | 4 (≈ 10.7 µM) | 4 (≈ 10.7 µM) | 8 (≈ 21.3 µM) | 4 (≈ 10.7 µM) | 4 (≈ 10.7 µM) | 8 (≈ 21.3 µM) | 8 (≈ 21.3 µM) | 4 (≈ 10.7 µM) | 4 (≈ 10.7 µM) | 0.5 (≈ 1.33 µM) | 4 (≈ 10.7 µM) | 0.5 (≈ 1.33 µM) | 0.5 (≈ 1.33 µM) | 8 (≈ 21.3 µM) | 8 (≈ 21.3 µM) | 16 (≈ 42.6 µM) | 2 (≈ 5.33 µM) | 0.5 (≈ 1.33 µM) | 0.5 (≈ 1.33 µM) | 0.5 (≈ 1.33 µM) | MIC90 [19]: 4 µg/mL (≈ 10.7 µM); MIC50 [20]: 0.5 µg/mL (≈ 1.33 µM); MIC90 [20]: 0.5 µg/mL (≈ 1.33 µM); MIC50 [21]: 8 µg/mL (≈ 21.3 µM); MIC90 [21]: 8 µg/mL (≈ 21.3 µM); MIC [22]: 1 µg/mL (≈ 2.66 µM); MIC [23]: 2 µg/mL (≈ 5.33 µM); MIC [24]: 8 µg/mL (≈ 21.3 µM); MIC [25]: 4 µg/mL (≈ 10.7 µM); MIC [26]: 16 µg/mL (≈ 42.6 µM); MIC [27]: 8 µg/mL (≈ 21.3 µM); MIC [28]: 0.25 µg/mL (≈ 0.666 µM); MIC [29]: 0.12 µg/mL (≈ 0.32 µM); MIC [30]: 0.25 µg/mL (≈ 0.666 µM); MIC [31]: 0.25 µg/mL (≈ 0.666 µM); MIC [32]: 4 µg/mL (≈ 10.7 µM)
